Assay: Dissolution testing of acetaminophen particles (USP XXIII, Apparatus 2, paddle)
Type: physicochemical
Details: 900 ml water, 37° C., USP Apparatus 2, paddle 50 rpm, amount equivalent to 500 mg acetaminophen, n = 6
Experimental: Dissolution testing of the acetaminophen particles was carried out using USP XXIII “Acetaminophen capsules” and “Dissolution '711”, which are incorporated herein by reference. The method was adapted to use a relevant quantity of powder, i.e. an amount equivalent to 500 mg of acetaminophen in the dissolution bowl. This quantity represents a standard amount of […] in marketed U.S.A. over-the-counter (OTC) products. The operating conditions included 900 ml of water at 37° C. in a USP Apparatus 2 with paddle speed set at 50 rpm. FIG. 1 presents the dissolution-curves of acetaminophen and 4.6% lipid-based coated acetaminophen, i.e. 4.6% coating and 95.4% acetaminophen.

Question: What does the source list for `CC(=O)Nc1ccc(O)cc1` [100% Acetaminophen, Acetaminophen]?
Answer: Dissolution % (5 min): 66.3%; Dissolution % (10 min): 90.8%; Dissolution % (15 min): 95.7%; Dissolution % (20 min): 97.1%; Dissolution % (30 min): 97.5%; Dissolution % (45 min): 97.7%; Dissolution % (60 min): 97.7%

Source: patent US20030215498A1, “Rapidly disintegrating comressed tablets comprising biologically active compounds” (priority 2002, published 2003)
